Results reported in US9675694B2, “Polycyclic agents for the treatment of respiratory syncytial virus infections” (Biota Scientific Management Pty Ltd., priority 2006, dated 2017).
pEC50: −log10 of the molar value.

What follows are compounds tested on RSV A2 (assay: RSV antiviral cytopathic effect (CPE) assay, MTT readout). Settings: human respiratory syncytial virus, HEp-2, 120 h; HEp2 cells infected with RSV A2, moi ~0.01, 5 days; compounds of Table 2; read-out: Activity Range (EC50, RSV A2 antiviral).
Assay type: cell-based
Experimental: Biological Data Method P: RSV Antiviral Assay Protocol
Compounds of the invention were tested for their antiviral activity against respiratory syncytial virus. Cytopathic effect (CPE) assays were performed essentially as described in the literature (see for example Watanabe et al, 1994, J. Virological Methods, 48:257). Serial dilutions of the test compounds were made in 96 well plates. HEp2 cells (1.0×10^4 cells/well) were infected with RSV at a low multiplicity of infection (e.g. RSV A2 at an moi of ˜0.01) and added to plates to assess antiviral activity. Uninfected HEp2 cells were used to assess compound cytotoxicity. Assays were incubated for 5 days at 37° C. in a 5% CO2 atmosphere. The extent of CPE was determined via metabolism of the vital dye 3-(4, 5-dimethylthiaxol-2-yl)-2,5-diphenyltetrazolium bromide (MTT). MTT (1 mg/ml) was added to each well and plates incubated for 2 hours incubation at 37° C. Wells were aspirated, iso-propanol (200 μL) was added and absorbance values read at 540/690 nm. Compound concentrations that inhibited CPE by 50% (EC50) and developed cytotoxicity (CC50) were calculated using non-linear regression analysis.

Row | Structure (SMILES) | pEC50
1 | O=C(c1ccno1)N1CCN2C(=O)c3ccccc3CC12c1ccc(Cl)cc1 (stereo not drawn) [Compound 1-025] | 5.30 to 6.00
2 | O=C(c1cccnc1)N1CCN2C(=O)c3ccccc3CC12c1ccc(Cl)cc1 (stereo not drawn) [Compound 1-008, 10a-(4-Chlorophenyl)-1-(pyridine-3-carbonyl)-2,3,10,10a-tetrahydro-1H-imidazo[1,2-b]isoquinolin-5-one] | 5.30 to 6.00
3 | O=C(c1ccc(F)cc1)N1CCN2C(=O)c3ccccc3CC12c1ccc(Cl)cc1 (stereo not drawn) [Compound 1-005] | < 5.30
4 | O=C(c1ccc(F)cc1)N1CCN2C(=O)c3cccc(F)c3CC12c1ccc(Cl)cc1 (stereo not drawn) [Compound 1-073] | 6.00 to 6.60
5 | COc1ccc(CC(=O)N2CCN3C(=O)c4ccccc4CC23c2ccc(Cl)cc2)cc1 (stereo not drawn) [Compound 1-069] | 6.00 to 6.60
6 | O=C(c1ccc(F)nc1)N1CCN2C(=O)c3ccccc3CC12c1ccc(Cl)cc1 (stereo not drawn) [Compound 1-007] | 5.30 to 6.00
7 | O=C1c2ccccc2CC2(c3ccc(Cl)cc3)N1CCN2C(=O)c1sccc1Cl (stereo not drawn) [Compound 1-019] | 6.00 to 6.60
8 | Cn1cc(C(=O)N2CCN3C(=O)c4ccccc4CC32c2ccc(Cl)cc2)c(C(F)(F)F)n1 (stereo not drawn) [Compound 1-029] | 6.00 to 6.60
9 | O=C(c1cccnc1)N1CCN2C(=O)c3cccnc3CC12c1ccc(Cl)cc1 (stereo not drawn) [Compound 1-014] | 5.30 to 6.00
10 | CCC(=O)N1CCN2C(=O)c3ccccc3CC12c1ccc(Cl)cc1 (stereo not drawn) [Compound 1-077] | 5.30 to 6.00
11 | O=C(c1cccnc1)N1CCN2C(=O)c3ccccc3CC12c1ccccc1 (stereo not drawn) [Compound 1-003] | 6.00 to 6.60
12 | O=C(NCCc1ccccc1)N1CCN2C(=O)c3cccnc3CC12c1ccc(Cl)cc1 (stereo not drawn) [Compound 1-015] | 6.00 to 6.60
13 | O=C(c1ccc(F)cc1)N1CCN2C(=O)c3ncccc3CC12c1ccc(Cl)cc1 (stereo not drawn) [Compound 1-109] | 5.30 to 6.00
14 | O=C(c1ccoc1)N1CCN2C(=O)c3ccncc3CC12c1ccc(Cl)cc1 (stereo not drawn) [Compound 1-010] | 6.00 to 6.60
15 | O=C(c1cccnc1)N1CCN2C(=O)c3ccc(F)cc3CC12c1ccc(Cl)cc1 (stereo not drawn) [Compound 1-083] | 6.00 to 6.60
16 | O=C(CNS(=O)(=O)c1ccc(F)cc1)N1CCN2C(=O)c3ccccc3CC12c1ccc(Cl)cc1 (stereo not drawn) [Compound 1-079, N-{2-[10a-(4-Chlorophenyl)-5-oxo-2,3,10,10a-tetrahydro-5H-imidazo[1,2-b]isoquinolin-1-yl]-2-oxoethyl}-4-fluorobenzenesulfonamide] | 6.00 to 6.60
17 | O=C(Cc1ccccn1)N1CCN2C(=O)c3ccccc3CC12c1ccc(Cl)cc1 (stereo not drawn) [Compound 1-066] | 5.30 to 6.00

The next lines start with the values.

Row | pEC50 | Structure (SMILES)
18 | > 6.60 | O=C(c1ccoc1)N1CCN2C(=O)c3ccccc3CC12c1ccc(Cl)cc1 (stereo not drawn) [Compound 1-006]
19 | > 6.60 | O=C(c1cccs1)N1CCN2C(=O)c3cccnc3CC12c1ccc(Cl)cc1 (stereo not drawn) [Compound 1-101]
20 | 6.00 to 6.60 | O=C(c1csc(-c2cccnc2)n1)N1CCN2C(=O)c3ccccc3CC12c1ccccc1 (stereo not drawn) [Compound 1-002]
21 | 6.00 to 6.60 | O=C(c1ccc(F)cc1)N1CCN2C(=O)c3ccccc3CC12c1ccccc1 (stereo not drawn) [Compound 1-001]
22 | > 6.60 | O=C(c1ccoc1)N1CCN2C(=O)c3cccc(F)c3CC12c1ccc(Cl)cc1 (stereo not drawn) [Compound 1-071]
23 | > 6.60 | O=C(c1ccoc1)N1CCN2C(=O)c3cccnc3CC12c1ccc(Cl)cc1 (stereo not drawn) [Compound 1-043]
24 | > 6.60 | Cn1cc(C(=O)N2CCN3C(=O)c4cccc(F)c4CC23c2ccc(Cl)cc2)c(C(F)(F)F)n1 (stereo not drawn) [Compound 1-087]
